Source: ChEMBL document CHEMBL5113480, “Discovery of novel biphenyl-substituted pyridone derivatives as potent non-nucleoside reverse transcriptase inhibitors with promising oral bioavailability” (Eur J Med Chem, 2022)

Columns and labels:
[1] = tested on: Human immunodeficiency virus 1; experiment: Antiviral activity against HIV-1 Y188L mutant infected in human MT4 cells assessed as reduction in viral replication by MTT assay; type: functional, organism-based; details: Human immunodeficiency virus 1, Y188L mutant
[2] = tested on: Human immunodeficiency virus 1; experiment: Antiviral activity against HIV-1 Y181C mutant infected in human MT4 cells assessed as reduction in viral replication by MTT assay; type: functional, organism-based; details: Human immunodeficiency virus 1, Y181C mutant
[3] = tested on: Human immunodeficiency virus 1; experiment: Antiviral activity against HIV-1 ROD infected in human MT4 cells assessed as reduction in viral replication by MTT assay; type: functional, organism-based
[4] = Selectivity index, ratio of CC50 for cytotoxicity against human MT4 cells to EC50 of Anti-HIV activity against HIV-1 IIIB infected in human MT4 cells; type: toxicity, cell-based; details: read-out: Ratio CC50/EC50
[5] = Cytotoxicity against human MT4 cells assessed as reduction on cell growth by MTT assay; type: toxicity, cell-based
[6] = tested on: Human immunodeficiency virus 1; experiment: Antiviral activity against HIV-1 K103N mutant infected in human MT4 cells assessed as reduction in viral replication by MTT assay; type: functional, organism-based; details: Human immunodeficiency virus 1, K103N mutant
[7] = tested on: Human immunodeficiency virus 1; experiment: Antiviral activity against HIV-1 K103N-Y181C mutant infected in human MT4 cells assessed as reduction in viral replication by MTT assay; type: functional, organism-based; details: Human immunodeficiency virus 1, K103N-Y181C mutant
[8] = biological target: Human immunodeficiency virus type 1 reverse transcriptase (Human immunodeficiency virus 1, UniProt Q72547); experiment: Inhibition of wild type HIV-1 Reverse transcriptase
[9] = tested on: Human immunodeficiency virus 1; experiment: Antiviral activity against HIV-1 L100I mutant infected in human MT4 cells assessed as reduction in viral replication by MTT assay; type: functional, organism-based; details: Human immunodeficiency virus 1, L100I mutant
[10] = tested on: Human immunodeficiency virus 1; experiment: Antiviral activity against HIV-1 IIIB infected in human MT4 cells assessed as reduction in viral replication by MTT assay; type: functional, organism-based; details: Human immunodeficiency virus 1, IIIB
[11] = tested on: Human immunodeficiency virus 1; experiment: Antiviral activity against HIV-1 E138K mutant infected in human MT4 cells assessed as reduction in viral replication by MTT assay; type: functional, organism-based; details: Human immunodeficiency virus 1, E138K mutant
[12] = tested on: Human immunodeficiency virus 1; experiment: Antiviral activity against HIV-1 F227L-V106A mutant infected in human MT4 cells assessed as reduction in viral replication by MTT assay; type: functional, organism-based; details: Human immunodeficiency virus 1, F227L-V106A mutant

Compound	EC50 [1]	EC50 [2]	EC50 [3]	selectivity ratio [4]	CC50 [5]	EC50 [6]	EC50 [7]	IC50 [8]	EC50 [9]	EC50 [10]	EC50 [11]	EC50 [12]
Cc1cc(-c2cccc(F)c2)ccc1Oc1c(C(F)(F)F)ccn(Cc2n[nH]c(=O)n2C)c1=O	> 35 µM	> 35 µM	> 35 µM	5.2	26.7 µM	2.59 µM	> 35 µM	5.44 µM	3.64 µM	5.14 µM	3.99 µM	> 35 µM
Cn1c(Cn2ccc(C(F)(F)F)c(Oc3ccc(-c4cc(F)cc(C#N)c4)cc3Cl)c2=O)n[nH]c1=O	> 35 µM	7.14 µM	> 35 µM	5.71	19.3 µM	3.29 µM	> 35 µM	4.37 µM	2.41 µM	3.38 µM	3.29 µM	> 35 µM
Cn1c(Cn2ccc(C(F)(F)F)c(Oc3ccc(-c4ccc(F)c(C#N)c4)cc3Cl)c2=O)n[nH]c1=O	> 35 µM	> 35 µM	> 35 µM	5.39	24.4 µM	3.87 µM	> 35 µM	10.3 µM	3.31 µM	4.53 µM	6.78 µM	> 35 µM
Cc1cccc(-c2ccc(Oc3c(C(F)(F)F)ccn(Cc4n[nH]c(=O)n4C)c3=O)cc2C)c1	> 35 µM	7.51 µM	> 35 µM	5.43	23.8 µM	> 35 µM	> 35 µM	6.54 µM	3.23 µM	4.38 µM	> 35 µM	> 35 µM
Cc1cc(Oc2c(C(F)(F)F)ccn(Cc3n[nH]c(=O)n3C)c2=O)ccc1-c1ccc(F)c(C#N)c1	> 35 µM	6.91 µM	> 35 µM	70.6	42.5 µM	2.33 µM	> 35 µM	1.46 µM	1.58 µM	0.6 µM	1.37 µM	> 35 µM
Cc1cc(Oc2c(C(F)(F)F)ccn(Cc3n[nH]c(=O)n3C)c2=O)ccc1-c1cc(F)cc(C#N)c1	> 35 µM	> 35 µM	> 35 µM	29.4	45.6 µM	8.02 µM	> 35 µM	3.67 µM	3.84 µM	1.55 µM	2.54 µM	> 35 µM
Cc1cc(-c2ccc(F)c(C#N)c2)ccc1Oc1c(C(F)(F)F)ccn(Cc2n[nH]c(=O)n2C)c1=O	> 35 µM	6.03 µM	> 35 µM	13.7	25 µM	1.59 µM	8.59 µM	5.49 µM	2.73 µM	1.83 µM	2.31 µM	> 35 µM
Cn1c(Cn2ccc(C(F)(F)F)c(Oc3ccc(-c4cccc(C#N)c4)cc3Cl)c2=O)n[nH]c1=O	> 35 µM	> 35 µM	> 35 µM	5.62	22.9 µM	2.92 µM	> 35 µM	7.21 µM	2.35 µM	4.07 µM	3.56 µM	> 35 µM
Cc1cc(-c2cc(F)cc(C#N)c2)ccc1Oc1c(C(F)(F)F)ccn(Cc2n[nH]c(=O)n2C)c1=O	> 35 µM	5.96 µM	> 35 µM	17.6	23.3 µM	1.27 µM	6.89 µM	5.34 µM	1.9 µM	1.33 µM	1.9 µM	> 35 µM
COc1cc(-c2cccc(C#N)c2)ccc1Oc1c(C(F)(F)F)ccn(Cc2n[nH]c(=O)n2C)c1=O	> 35 µM	13.4 µM	> 35 µM	14.8	126 µM	12 µM	> 35 µM	28.6 µM	5.61 µM	8.47 µM	18.5 µM	> 35 µM
Cn1c(Cn2ccc(C(F)(F)F)c(Oc3ccc(-c4cccc(C#N)c4)cc3F)c2=O)n[nH]c1=O	> 35 µM	> 35 µM	> 35 µM	9.6	35.3 µM	7.38 µM	> 35 µM	5 µM	4.93 µM	3.68 µM	5.41 µM	> 35 µM
Cc1cc(Oc2c(C(F)(F)F)ccn(Cc3n[nH]c(=O)n3C)c2=O)ccc1-c1cccc(C#N)c1	38.8 µM	6.38 µM	> 35 µM	118	82.7 µM	2.09 µM	33 µM	1.53 µM	1.34 µM	0.7 µM	1.01 µM	> 35 µM
Cc1cc(-c2ccc(F)cc2)ccc1Oc1c(C(F)(F)F)ccn(Cc2n[nH]c(=O)n2C)c1=O	> 35 µM	> 35 µM	> 35 µM	5.15	26 µM	3.36 µM	> 35 µM	5.4 µM	3.26 µM	5.05 µM	3.94 µM	> 35 µM
Cc1cc(Oc2c(C(F)(F)F)ccn(Cc3n[nH]c(=O)n3C)c2=O)ccc1-c1cccc(F)c1	> 35 µM	> 35 µM	> 35 µM	20.1	55.9 µM	10.9 µM	> 35 µM	4.71 µM	2.14 µM	2.77 µM	4 µM	> 35 µM
Cc1cc(-c2cccc(C#N)c2)ccc1Oc1c(C(F)(F)F)ccn(Cc2n[nH]c(=O)n2C)c1=O	> 35 µM	4.75 µM	> 35 µM	20.2	27.2 µM	1.04 µM	6.69 µM	4.73 µM	1.38 µM	1.35 µM	1.81 µM	> 35 µM
COc1cc(-c2ccc(F)c(C#N)c2)ccc1Oc1c(C(F)(F)F)ccn(Cc2n[nH]c(=O)n2C)c1=O	> 35 µM	14.7 µM	> 35 µM	5.74	102 µM	11.2 µM	> 35 µM	42.5 µM	4.41 µM	17.9 µM	21.8 µM	> 35 µM
Cc1cc(-c2ccc(C#N)cc2)ccc1Oc1c(C(F)(F)F)ccn(Cc2n[nH]c(=O)n2C)c1=O	> 35 µM	6.26 µM	> 35 µM	21.7	33.4 µM	1.65 µM	6.55 µM	4.8 µM	1.63 µM	1.54 µM	2.42 µM	> 35 µM
Cc1cc(Oc2c(C(F)(F)F)ccn(Cc3n[nH]c(=O)n3C)c2=O)ccc1-c1ccc(C#N)cc1	> 35 µM	8.83 µM	> 35 µM	24	52.1 µM	8.35 µM	> 35 µM	4.2 µM	2.33 µM	2.17 µM	3.68 µM	> 35 µM
Cn1c(Cn2ccc(C(F)(F)F)c(Oc3ccc(-c4ccc(F)c(C#N)c4)cc3F)c2=O)n[nH]c1=O	44.8 µM	39.6 µM	> 35 µM	12.8	65.5 µM	7.27 µM	> 35 µM	7 µM	7.27 µM	5.12 µM	7.72 µM	> 35 µM
Cn1c(Cn2ccc(C(F)(F)F)c(Oc3ccc(-c4ccc(C#N)cc4)cc3F)c2=O)n[nH]c1=O	> 35 µM	48.3 µM	> 35 µM	8.72	41.8 µM	6.13 µM	> 35 µM	6.35 µM	4.6 µM	4.8 µM	7.06 µM	> 35 µM
Cn1c(Cn2ccc(C(F)(F)F)c(Oc3ccc(-c4ccc(C#N)cc4)cc3Cl)c2=O)n[nH]c1=O	> 35 µM	> 35 µM	> 35 µM	3.58	21.5 µM	6.35 µM	> 35 µM	6.73 µM	4.55 µM	6.02 µM	6.18 µM	> 35 µM
Cn1c(Cn2ccc(C(F)(F)F)c(Oc3ccc(-c4cc(F)cc(C#N)c4)cc3F)c2=O)n[nH]c1=O	41.5 µM	38.8 µM	> 35 µM	20.6	69.2 µM	8.33 µM	> 35 µM	5.98 µM	3.72 µM	3.36 µM	4.02 µM	38.9 µM
